Results from ChEMBL document CHEMBL1177764, “Exploration of potential prodrug approach of the bis-thiazolium salts T3 and T4 for orally delivered antimalarials” (Bioorg Med Chem Lett, 2010).

Experiments:
Plasmodium vinckei [1] = assay: Antimalarial activity against Plasmodium vinckei infected in perorally dosed mice (Mus musculus); format: functional; conditions: po
Plasmodium falciparum = assay: Antiplasmodial activity against Plasmodium falciparum; format: functional, organism-based
Plasmodium vinckei [2] = assay: Antimalarial activity against Plasmodium vinckei infected in intraperitoneally dosed mice (Mus musculus); format: functional; conditions: ip

| IC50 (Plasmodium falciparum) | SMILES | ED50 (Plasmodium vinckei [1]) | ED50 (Plasmodium vinckei [2]) |
| --- | --- | --- | --- |
| 4400 nM | C/C(=C1\CCOC(=S)S1)N(C=O)CCCCCCCCCCCCN(C=O)/C(C)=C1/CCOC(=S)S1 | > 30 mg/kg | – |
| 1.1 nM | COCC/C(SC(C)=O)=C(\C)N(C=O)CCCCCCCCCCCCN(C=O)/C(C)=C(/CCOC)SC(C)=O | – | – |
| 4.3 nM | CCC(=O)S/C(CCOC)=C(/C)N(C=O)CCCCCCCCCCCCN(C=O)/C(C)=C(/CCOC)SC(=O)CC | 12 mg/kg | < 0.1 mg/kg |
| 1.1 nM | COCC/C(SC(=O)C(C)C)=C(\C)N(C=O)CCCCCCCCCCCCN(C=O)/C(C)=C(/CCOC)SC(=O)C(C)C | 11 mg/kg | 0.12 mg/kg |
| 2 nM | COCC/C(SC(=O)C1CC1)=C(\C)N(C=O)CCCCCCCCCCCCN(C=O)/C(C)=C(/CCOC)SC(=O)C1CC1 | 16 mg/kg | – |
| 2.4 nM | COCC/C(SC(=O)CC(C)C)=C(\C)N(C=O)CCCCCCCCCCCCN(C=O)/C(C)=C(/CCOC)SC(=O)CC(C)C | 16 mg/kg | – |
| 6.7 nM | COCC/C(SC(=O)C(C)(C)C)=C(\C)N(C=O)CCCCCCCCCCCCN(C=O)/C(C)=C(/CCOC)SC(=O)C(C)(C)C | – | – |
| 3.6 nM | COCC/C(SC(=O)C1CCC1)=C(\C)N(C=O)CCCCCCCCCCCCN(C=O)/C(C)=C(/CCOC)SC(=O)C1CCC1 | – | – |
| 8.2 nM | COCC/C(SC(=O)C1CCCC1)=C(\C)N(C=O)CCCCCCCCCCCCN(C=O)/C(C)=C(/CCOC)SC(=O)C1CCCC1 | 17 mg/kg | 0.65 mg/kg |
| 3.3 nM | C/C=C/CC(=O)S/C(CCOC)=C(/C)N(C=O)CCCCCCCCCCCCN(C=O)/C(C)=C(/CCOC)SC(=O)C/C=C/C | 16 mg/kg | – |
| 1.7 nM | COCC/C(SC(=O)c1ccccc1)=C(\C)N(C=O)CCCCCCCCCCCCN(C=O)/C(C)=C(/CCOC)SC(=O)c1ccccc1 | 15 mg/kg | < 0.5 mg/kg |
| 110 nM | COCC/C(SC(=O)c1ccccc1C)=C(\C)N(C=O)CCCCCCCCCCCCN(C=O)/C(C)=C(/CCOC)SC(=O)c1ccccc1C | 24 mg/kg | 0.25 mg/kg |
| 2200 nM | COCC/C(SC(=O)c1ccccc1C(F)(F)F)=C(\C)N(C=O)CCCCCCCCCCCCN(C=O)/C(C)=C(/CCOC)SC(=O)c1ccccc1C(F)(F)F | > 90 mg/kg | > 2.5 mg/kg |
| 2.3 nM | COCC/C(SC(=O)COC)=C(\C)N(C=O)CCCCCCCCCCCCN(C=O)/C(C)=C(/CCOC)SC(=O)COC | 80 mg/kg | 1.9 mg/kg |
| 1.6 nM | COCC/C(SC(=O)Cc1ccco1)=C(\C)N(C=O)CCCCCCCCCCCCN(C=O)/C(C)=C(/CCOC)SC(=O)Cc1ccco1 | 14 mg/kg | – |
| 5.9 nM | COCC/C(SC(=O)CCC(=O)OC)=C(\C)N(C=O)CCCCCCCCCCCCN(C=O)/C(C)=C(/CCOC)SC(=O)CCC(=O)OC | 10 mg/kg | 0.4 mg/kg |
| 1.6 nM | COCC/C(SC(=O)CCC(C)=O)=C(\C)N(C=O)CCCCCCCCCCCCN(C=O)/C(C)=C(/CCOC)SC(=O)CCC(C)=O | 3 mg/kg | 0.15 mg/kg |
| 15.6 nM | COCC/C(SC(=O)C(C)(C)OC(C)=O)=C(\C)N(C=O)CCCCCCCCCCCCN(C=O)/C(C)=C(/CCOC)SC(=O)C(C)(C)OC(C)=O | 57 mg/kg | 60.3 mg/kg |
| 1.5 nM | COCC/C(SC(=O)c1ccc(CN2CCOCC2)cc1)=C(\C)N(C=O)CCCCCCCCCCCCN(C=O)/C(C)=C(/CCOC)SC(=O)c1ccc(CN2CCOCC2)cc1 | 90 mg/kg | 3.4 mg/kg |
| 2.8 nM | COCC/C(SC(=O)C1CCCN1)=C(\C)N(C=O)CCCCCCCCCCCCN(C=O)/C(C)=C(/CCOC)SC(=O)C1CCCN1 (centres undefined) | 17 mg/kg | – |

| IC50 (Plasmodium falciparum) | SMILES | ED50 (Plasmodium vinckei [1]) | ED50 (Plasmodium vinckei [2]) |
| --- | --- | --- | --- |
| 2.1 nM | COCC/C(SC(=O)c1cccnc1)=C(\C)N(C=O)CCCCCCCCCCCCN(C=O)/C(C)=C(/CCOC)SC(=O)c1cccnc1 | < 30 mg/kg | – |
| – | COCCc1sc[n+](CCCCCCCCCCCC[n+]2csc(CCOC)c2C)c1C.[Br-].[Br-] | 8.1 mg/kg | 0.14 mg/kg |
| 2.9 nM | CCOC(=O)S/C(CCOC)=C(/C)N(C=O)CCCCCCCCCCCCN(C=O)/C(C)=C(/CCOC)SC(=O)OCC | 6.3 mg/kg | 0.21 mg/kg |
| 6.2 nM | COCC/C(SC(=O)OC(C)C)=C(\C)N(C=O)CCCCCCCCCCCCN(C=O)/C(C)=C(/CCOC)SC(=O)OC(C)C | 6.8 mg/kg | < 0.1 mg/kg |
| 5.6 nM | CCCCOC(=O)S/C(CCOC)=C(/C)N(C=O)CCCCCCCCCCCCN(C=O)/C(C)=C(/CCOC)SC(=O)OCCCC | 16 mg/kg | – |
| 3.5 nM | COCC/C(SC(=O)Oc1ccccc1)=C(\C)N(C=O)CCCCCCCCCCCCN(C=O)/C(C)=C(/CCOC)SC(=O)Oc1ccccc1 | 24 mg/kg | 0.3 mg/kg |
| 3.1 nM | COCC/C(SC(=O)Oc1ccc([N+](=O)[O-])cc1)=C(\C)N(C=O)CCCCCCCCCCCCN(C=O)/C(C)=C(/CCOC)SC(=O)Oc1ccc([N+](=O)[O-])cc1 | > 30 mg/kg | – |
| 10.6 nM | COCC/C(SC(=O)OC(C)Cl)=C(\C)N(C=O)CCCCCCCCCCCCN(C=O)/C(C)=C(/CCOC)SC(=O)OC(C)Cl (centres undefined) | 13 mg/kg | 0.11 mg/kg |
| 2.7 nM | COCC/C(SC(=O)OCCBr)=C(\C)N(C=O)CCCCCCCCCCCCN(C=O)/C(C)=C(/CCOC)SC(=O)OCCBr | 13 mg/kg | – |
| 2.2 nM | COCC/C(SC(=O)OCCF)=C(\C)N(C=O)CCCCCCCCCCCCN(C=O)/C(C)=C(/CCOC)SC(=O)OCCF | 3.8 mg/kg | 0.1 mg/kg |
| 310 nM | COCC/C(SC(=O)N1CCCC1)=C(\C)N(C=O)CCCCCCCCCCCCN(C=O)/C(C)=C(/CCOC)SC(=O)N1CCCC1 | > 90 mg/kg | > 5 mg/kg |
| 29.5 nM | COCC/C(SC(=O)N1CCCC1=O)=C(\C)N(C=O)CCCCCCCCCCCCN(C=O)/C(C)=C(/CCOC)SC(=O)N1CCCC1=O | 12 mg/kg | 0.9 mg/kg |
| 7 nM | C/C(=C(\CCOC(=O)C(C)C)SC(=O)C(C)C)N(C=O)CCCCCCCCCCCCN(C=O)/C(C)=C(/CCOC(=O)C(C)C)SC(=O)C(C)C | 60 mg/kg | 1.2 mg/kg |
| 48 nM | COC(=O)CCC(=O)OCC/C(SC(=O)CCC(=O)OC)=C(\C)N(C=O)CCCCCCCCCCCCN(C=O)/C(C)=C(/CCOC(=O)CCC(=O)OC)SC(=O)CCC(=O)OC | 13 mg/kg | 0.5 mg/kg |
| 16.5 nM | COc1ccc(C(=O)OCC/C(SC(=O)c2ccc(OC)c(OC)c2OC)=C(\C)N(C=O)CCCCCCCCCCCCN(C=O)/C(C)=C(/CCOC(=O)c2ccc(OC)c(OC)c2OC)SC(=O)c2ccc(OC)c(OC)c2OC)c(OC)c1OC | > 60 mg/kg | 1.8 mg/kg |
| 3500 nM | C/C(=C(\CCOC(=O)c1ccccc1C)SC(=O)c1ccccc1C)N(C=O)CCCCCCCCCCCCN(C=O)/C(C)=C(/CCOC(=O)c1ccccc1C)SC(=O)c1ccccc1C | > 180 mg/kg | > 20 mg/kg |
| 2.2 nM | C/C(=C1\CCOC(=O)S1)N(C=O)CCCCCCCCCCCCN(C=O)/C(C)=C1/CCOC(=O)S1 | 5 mg/kg | 0.25 mg/kg |
| 1.85 nM | COCC/C(SC(=O)OC)=C(\C)N(C=O)CCCCCCCCCCCCN(C=O)/C(C)=C(/CCOC)SC(=O)OC | 1.3 mg/kg | 0.072 mg/kg |
| – | Cc1c(CCO)sc[n+]1CCCCCCCCCCCC[n+]1csc(CCO)c1C.[Br-].[Br-] [ALBITIAZOLIUM BROMIDE] | 13 mg/kg | 0.2 mg/kg |
